Test results from PubChem BioAssay (NCI).
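The compound was tested at five concentrations on cells cultured in 96-well plates, with a 48-hour exposure period. GI50 = concentration required for 50% inhibition of growth. TGI is the concentration that stops growth completely.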

Columns and labels:
Experiment in all cases: growth of human tumour cells (NCI), 48 h
RPMI-8226 leukemia = tested on: RPMI-8226 leukemia
RXF 393 renal = tested on: RXF 393 renal
MDA-MB-435 = tested on: MDA-MB-435
OVCAR-5 ovarian = tested on: OVCAR-5 ovarian
DU-145 prostate = tested on: DU-145 prostate
TK-10 renal = tested on: TK-10 renal
IGROV1 ovarian = tested on: IGROV1 ovarian
SNB-75 CNS = tested on: SNB-75 CNS
SK-MEL-2 melanoma = tested on: SK-MEL-2 melanoma
EKVX NSCLC = tested on: EKVX NSCLC

## CCOC(=O)c1ccccc1-c1c2ccc(=[N+](C)C)cc-2oc2cc(N(C)C)ccc12
RPMI-8226 leukemia
  GI50: 0.082 µM
  TGI: 4.96 µM
RXF 393 renal
  GI50: 0.692 µM
  TGI: 7.58 µM
MDA-MB-435
  GI50: 0.255 µM
  TGI: 5.71 µM
OVCAR-5 ovarian
  GI50: 0.537 µM
  TGI: > 39.6 µM
DU-145 prostate
  GI50: 0.174 µM
  TGI: 24.1 µM
TK-10 renal
  GI50: 1.06 µM
  TGI: 25.2 µM
IGROV1 ovarian
  GI50: 0.332 µM
  TGI: 16.1 µM
SNB-75 CNS
  GI50: 0.196 µM
  TGI: 11 µM
SK-MEL-2 melanoma
  GI50: 0.579 µM
  TGI: 4.1 µM
EKVX NSCLC
  GI50: 0.129 µM
  TGI: > 38.9 µM

## O=C(CC(=O)c1ccccc1)c1ccccc1
RPMI-8226 leukemia
  GI50: 21.3 µM
  TGI: > 100 µM
RXF 393 renal
  GI50: 22 µM
  TGI: 88 µM
MDA-MB-435
  GI50: 29.3 µM
  TGI: > 100 µM
OVCAR-5 ovarian
  GI50: 25.6 µM
  TGI: > 100 µM
DU-145 prostate
  GI50: 11.9 µM
  TGI: 65.3 µM
TK-10 renal
  GI50: 20.5 µM
  TGI: 93.7 µM
IGROV1 ovarian
  GI50: 19.9 µM
  TGI: > 100 µM
SNB-75 CNS
  GI50: 22.9 µM
  TGI: > 100 µM
SK-MEL-2 melanoma
  GI50: 87 µM
  TGI: > 100 µM
EKVX NSCLC
  GI50: 11.2 µM
  TGI: 38 µM

## Oc1ccc(Cl)cc1-c1cc(-c2ccc(F)cc2)n[nH]1
RPMI-8226 leukemia
  GI50: 1.36 µM
  TGI: 4.58 µM
RXF 393 renal
  GI50: 2.83 µM
  TGI: 7.82 µM
MDA-MB-435
  GI50: 2.53 µM
  TGI: 10.7 µM
OVCAR-5 ovarian
  GI50: 5.39 µM
  TGI: > 100 µM
DU-145 prostate
  GI50: 3.04 µM
  TGI: 10.8 µM
TK-10 renal
  GI50: 3.23 µM
  TGI: 8.74 µM
IGROV1 ovarian
  GI50: 1.23 µM
  TGI: 8.44 µM
SNB-75 CNS
  GI50: 2.07 µM
  TGI: 9.19 µM
SK-MEL-2 melanoma
  GI50: 4.11 µM
  TGI: 19.3 µM
EKVX NSCLC
  GI50: 1.4 µM
  TGI: 14 µM

## O=[N+]([O-])c1cc(F)c2cccnc2c1O
RPMI-8226 leukemia
  GI50: 4.05 µM
  TGI: 24.3 µM
RXF 393 renal
  GI50: 17.5 µM
  TGI: 76.3 µM
MDA-MB-435
  GI50: 15 µM
  TGI: > 100 µM
OVCAR-5 ovarian
  GI50: 35.8 µM
  TGI: > 100 µM
DU-145 prostate
  GI50: 6.28 µM
  TGI: > 100 µM
TK-10 renal
  GI50: 14.9 µM
  TGI: > 100 µM
IGROV1 ovarian
  GI50: 2.5 µM
  TGI: 14.7 µM
SNB-75 CNS
  GI50: 4 µM
  TGI: > 100 µM
SK-MEL-2 melanoma
  GI50: 10.1 µM
  TGI: 94.4 µM
EKVX NSCLC
  GI50: 22.9 µM
  TGI: > 100 µM

## ClCC#CCSc1ncnc2c1ncn2CC#CCCl
RPMI-8226 leukemia
  GI50: 2.03 µM
  TGI: 6.38 µM
RXF 393 renal
  GI50: 1.01 µM
  TGI: 2.29 µM
MDA-MB-435
  GI50: 2.27 µM
  TGI: 9.04 µM
OVCAR-5 ovarian
  GI50: 1.73 µM
  TGI: 3.34 µM
DU-145 prostate
  GI50: 1.79 µM
  TGI: 4.49 µM
TK-10 renal
  GI50: 2.94 µM
  TGI: 13.9 µM
IGROV1 ovarian
  GI50: 1.03 µM
  TGI: 3.34 µM
SNB-75 CNS
  GI50: 1.42 µM
  TGI: 3.06 µM
SK-MEL-2 melanoma
  GI50: 1.75 µM
  TGI: 4.79 µM
EKVX NSCLC
  GI50: 1.9 µM
  TGI: 4.2 µM

## O=C1c2ccccc2-c2c1c1ccccc1c(=O)n2-c1ccccc1
RPMI-8226 leukemia
  TGI: > 100 µM
RXF 393 renal
  TGI: 15 µM
MDA-MB-435
  TGI: > 100 µM
OVCAR-5 ovarian
  TGI: > 100 µM
DU-145 prostate
  TGI: > 100 µM
TK-10 renal
  TGI: 27 µM
IGROV1 ovarian
  TGI: > 52.7 µM
SNB-75 CNS
  TGI: 37.1 µM
SK-MEL-2 melanoma
  TGI: 50.6 µM
EKVX NSCLC
  TGI: > 100 µM

## CCOC(=O)/C(C#N)=C/Nc1ccc(-c2nc3ccccc3[nH]2)cc1
RPMI-8226 leukemia
  GI50: 19.7 µM
  TGI: > 100 µM
RXF 393 renal
  GI50: 76.7 µM
  TGI: > 100 µM
MDA-MB-435
  GI50: 33.8 µM
  TGI: > 100 µM
OVCAR-5 ovarian
  GI50: 50.8 µM
  TGI: > 100 µM
DU-145 prostate
  GI50: 66.6 µM
  TGI: > 100 µM
TK-10 renal
  GI50: 16.8 µM
  TGI: 54.2 µM
IGROV1 ovarian
  GI50: 22.7 µM
  TGI: > 100 µM
SNB-75 CNS
  GI50: 24.2 µM
  TGI: 56.7 µM
SK-MEL-2 melanoma
  GI50: 42.6 µM
  TGI: > 100 µM
EKVX NSCLC
  GI50: 34.4 µM
  TGI: > 100 µM
